Several values for one entry are separate records, joined by “and”; a condition that tells them apart may be missing. Identical values can stand only once.
Key:
[1] = biological target: β1 receptors, guinea pig right atria (Cavia porcellus, UniProt H0W3H1); assay: cell-based; details: Table I; guinea pig right atria, vs isoproterenol; -log KB; read-out: PA2 Rt. Atria (converted)
Method: Each tissue was suspended between a fixed glass rod and a Statham Universal Transducer connected to a Beckman recorder. Atria were allowed to beat spontaneously under a loading tension of approximately 0.5 gm. Intrinsic depressant or stimulant activity was determined for each compound by progressively increasing concentrations in the tissue baths at 60-minute intervals. Tissues were not washed between increments. The maximum concentration showing little or no cardiodepressant activity was chosen for blockade experiments. Changes in rate in response to isoproterenol, a standard β-receptor agonist, were measured in the absence and presence of test compounds. Spiral strips of guinea pig trachea were suspended under 5 gm resting tension and incubated with phentolamine, tropolone and cocaine. Active tension was generated by addition of carbachol (3.0×10^-7 M) and decreases in tension in response to isoproterenol were quantitated. Cumulative concentration-response curves were produced with isoproterenol both before and after 60-minute incubation of test compounds with atria and trachea. […] The blocking potency of test compounds was estimated by computing pA2 values (-log KB) by the method of Furchgott, the Pharmacological Differentiation of Adrenergic Receptors, Ann. […] The degree of cardioselectivity was estimated from the ratio, KB trachea/KB atria (10^(pA2 atria-pA2 trachea)). A ratio greater than one indicates cardioselectivity. Test drugs were dissolved in distilled water and added to the bath (30 ml) in a volume of 10 or 100 μl.

[2] = system: heart rate response to isoproterenol; assay: Duration and potency of beta-blocking action in vivo, 3-hour infusion in anesthetized dogs, isoproterenol challenge; set-up: species or system dog; details: Table II; for Recovery Time 50%: 50% recovery from β-blockade after termination of infusion; for Recovery Time 80%: 80% recovery from β-blockade after termination of infusion; for % I, percent inhibition of heart rate response to isoproterenol: end of 3-hour infusion, isoproterenol 0.5 μg/kg
Method: The duration of β-blockade was determined In vivo using pentobarbital-anesthetized dogs instrumented for measurement of heart rate using a Beckman cardiotachometer triggered electronically by a phasic aortic blood pressure signal. Both vagus nerves were served in the cervical region and the animals were mechanically ventilated. The experimental design used employed a 3-hour infusion of test compound. Bolus doses of isoproterenol (0.5 μg/kg) were used to assess the degree of β-blockade and recovery from β-blockade after […] of the infusion. The doses were spaced at 10-minute intervals and were given before, during and following the infusion of test compounds. The infusion rate was adjusted so that at the end of the 3-hour infusion period the degree of isoproterenol inhibition averaged about 50% of control. Following termination of blocker infusion, percent recovery from β-blockade was computed and the time associated with 80% recovery estimated.
^c Time in minutes for 50% recovery from 50% blockade levels after 3
Infusions of drug. Number of experiments is equal to or greater than thre
for each compound unless noted otherwise. Tabulated data are mean values
^c The betablocking activities were evaluated Invivo in a canine
model. The betablocker was infused in the animal for 3 hours with the dos
adjusted to give approximately 50%. blockage of the Isoproternolinduced
tachycardia. The infusion was then terminated and the time required for
80% recovery of blockade was recorded as duration of action of the
compound. The amount of drug infused during the 3 hours was averaged and
expressed as potency in ug/kg/min.

[3] = Half-life in dog whole blood (procedure D); format: in vitro ADME; details: 37° C., read-out: T1/2 dog blood
Method: (§1) In each experiment, 1 ml of a solution containing 50 μg of the test compound was added to 1 ml of whole blood or 1 ml of a 33% (w/v) liver homogenate. The samples were incubated in a Dubnoff shaking metabolic incubator for 2.5, 5.0, 10.0, 20.0, 30.0 and 60.0 minutes at 37° C. At the designated time periods, the test mixtures were removed from the incubator and transferred to a 0° C. ice bath. Acetonitrile (2 ml) was immediately added and the mixtures were mixed to stop enzymatic hydrolysis. Zero time samples were prepared by adding 2 ml of acetonitrile to denature the proteins prior to addition of the test compounds. After centrifugation to sediment denatured proteins, 2 ml of the supernatant was removed and analyzed by high pressure liquid chromatography, using a mobile phase of 60% acetonitrile/40% 0.05 M sodium phosphate buffer (pH 6.6), a U.V. detector and Waters μ Bondapak Phenyl column.
(§2) The half life of each test compound was determined graphically by plotting the decrease in concentrations as a function of time.

[4] = Enzymatic hydrolysis by dog aqueous humor (procedure C); format: in vitro ADME; details: for remaining at 1 h / remaining at 2 h: 37° C., procedure C; for remaining at 1 h: read-out: % Drug remaining, 1 HR, dog aqueous humor; for remaining at 2 h: read-out: % Drug remaining, 2 HR, dog aqueous humor; for half-life: approximate value, determined by procedure C, read-out: T1/2 dog aqueous humor; for metabolised at 2 h: two hours, read-out: hydrolyzed in aqueous humor after two hours
Text: (§3) Chemicals--Acetonitrile was "HPLC" grade. Distilled water was used to dissolve the compounds and 0.01 N HCl was used to dissolve compounds requiring an acidic pH for dissolution. Enzyme Source--Fresh aqueous humor was collected from eyes of dogs using a 23-gauge needle while fresh dog blood was collected into heparinized Vacutainer tubes. Fresh liver was homogenized in 0.9% NaCl using a Potter-Elvehjem Teflon pestle and glass homogenizer to make a 25% (W/V) homogenate. […] Denatured tissue controls were prepared by adding 2.0 ml of acetonitrile into 0.5 ml of aqueous humor, blood, or liver homogenate to destroy esterase activities prior to addition of the β-blockers. These controls were then incubated at 37° C. for 120 min. […] Sample Processing and Data Analyses--All samples were centrifuged at 4000 RPM for 10 min to sediment denatured proteins. The resultant supernatants were transferred to WISP.cndot. vials and analyzed using an HPLC assay developed for beta blockers. The hydrolysis of β-blockers by aqueous humor, blood, and liver homogenate was determined by disappearance of the compounds. The extent of enzymatic hydrolysis by each tissue was determined by comparing the amount of each compound (absolute peak area) recovered at each time point to the amount of each compound (absolute peak area) in denatured tissue control and aqueous control samples.

[5] = Enzymatic hydrolysis by dog liver homogenate (procedure C); format: in vitro ADME; details: for remaining at 1 h / remaining at 2 h / half-life: dog, liver homogenate; for remaining at 1 h / remaining at 2 h: 37° C., procedure C; for remaining at 1 h: read-out: % Drug remaining, 1 HR, dog liver homogenate; for remaining at 2 h: read-out: % Drug remaining, 2 HR, dog liver homogenate; for half-life: approximate value, determined by procedure C, read-out: T1/2 dog liver homogenate
Text: as §3

[6] = Half-life in dog liver homogenate (procedure D); format: in vitro ADME; details: 37° C., read-out: T1/2 dog liver homogenate
Method: as §1, §2

Chain of β1 receptors, guinea pig right atria (H0W3H1 1-470): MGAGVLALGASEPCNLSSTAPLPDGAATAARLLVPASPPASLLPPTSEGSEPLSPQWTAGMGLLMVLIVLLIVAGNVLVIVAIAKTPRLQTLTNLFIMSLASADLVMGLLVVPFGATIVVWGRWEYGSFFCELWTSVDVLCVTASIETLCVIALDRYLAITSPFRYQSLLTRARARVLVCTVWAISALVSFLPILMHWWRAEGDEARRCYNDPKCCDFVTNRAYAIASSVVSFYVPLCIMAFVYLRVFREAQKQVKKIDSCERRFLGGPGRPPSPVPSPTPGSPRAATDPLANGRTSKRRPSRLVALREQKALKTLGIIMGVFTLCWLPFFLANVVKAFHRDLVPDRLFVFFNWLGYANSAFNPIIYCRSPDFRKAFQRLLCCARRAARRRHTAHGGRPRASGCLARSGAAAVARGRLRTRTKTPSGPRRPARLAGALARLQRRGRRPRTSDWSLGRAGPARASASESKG

Kb [1] [nM]	half-life [3] [h]	remaining at 1 h [4] [%]	remaining at 2 h [4] [%]	half-life [4] [h]	remaining at 1 h [5] [%]	remaining at 2 h [5] [%]	half-life [5] [h]	half-life [6] [h]	metabolised at 2 h [4] [%]	hydrolysis in liver homogenate ([5]; within 60 minutes)	metabolised at 1 h ([4]; one hour, read-out: hydrolyzed in aqueous humor after one hour) [%]	SMILES	Recovery Time 50% [2]	Recovery Time 80% [2]	% I, percent inhibition of heart rate response to isoproterenol [2]
7.94	1.03 ± 0.05	94	91	> 2	0	0	< 1	> 3	–	–	–	COC(=O)c1ccccc1OCC(O)CNCCNC(=O)C(C)C (stereo not shown) [II, Methyl 2-[2-Hydroxy-3-[N-[2-(2-methylpropionamido)ethyl]amino]propoxy]benzoate]	7 ± 1 min	17 ± 1 min	59 ± 2%
50.1	1.03 ± 0.133	93	93	> 2	0	0	< 1	2.78	7	completely hydrolyzed	–	COC(=O)c1ccccc1OCC(O)CNCCNC(C)=O (stereo not shown) [Example I, Methyl 2-[2-Hydroxy-3-[N-2(-acetamidoethyl)amino]propoxy]benzoate]	8 ± 1 min	18 ± 1 min	54 ± 2%
5.01	1.22 ± 0.267	100	98	> 2	0	0	< 1	2.15	2	–	0	COC(=O)c1ccccc1OCC(O)CNCCNC(=O)Cc1ccccc1 (stereo not shown) [III, Methyl 2-[2-Hydroxy-3-[N-[2-(phenylacetamido)ethyl]amino]propoxy]benzoate]	20 min and 19 min	40 min and 45 min	57% and 60%
